This is an account of results in patent US9233111B2, “Pyrrolo pyrimidine derivatives” (NOVARTIS AG, priority 2011, dated 2016).

The assay addresses full-length human recombinant BTK (Homo sapiens (Human), UniProt Q06187). Put plainly: Inhibition of Btk enzymatic activity (biochemical enzyme assay, Caliper). The conditions noted are these: 30° C., 60 minutes. How it is done: The inhibitory activity of the present compounds against Btk was assessed in a biochemical enzyme assay. Assay plates in 384 well format were prepared with 8-point serial dilutions for the test compounds on a Thermo CatX workstation equipped with a Innovadyne Nanodrop Express. The assay plates were prepared by addition of 50 nl per well of compound solution in 90% DMSO. The kinase reactions were started by stepwise addition of 4.5 μl per well of peptide/ATP-solution (4 μM FITC-Ahx-[…]-NH2, 164 μM ATP) in kinase buffer (50 mM HEPES, pH 7.5, 1 mM DTT, 0.02% Tween20, 0.02% BSA, 0.6% DMSO, 10 mM beta-glycerophosphate, and 10 μM sodium orthovanadate, 18 mM MgCl2, 1 mM MnCl2) and 4.5 μl per well of enzyme solution (6.4 nM full-length human recombinant BTK) in kinase buffer. Kinase reactions were incubated at 30° C. for 60 minutes and subsequently terminated by addition of 16 μl per well of stop solution (100 mM HEPES pH 7.5, 5% DMSO, 0.1% Caliper coating reagent, 10 mM EDTA, and 0.015% Brij35). Kinase reactions were analyzed on a Caliper LC3000 workstation by separating phosphorylated and unphosphorylated peptides and kinase activities were calculated from the amounts of newly formed phospho-peptide. Inhibition data were calculated by comparison to control reactions without enzyme (100% inhibition) and without inhibitors (0% inhibition). The concentration of inhibitor required for 50% inhibition (IC50) was calculated from the inhibition in response to inhibitor concentrations.

SMILES strings stand for the structures.

Sequence of full-length human recombinant BTK (Q06187 whole entry): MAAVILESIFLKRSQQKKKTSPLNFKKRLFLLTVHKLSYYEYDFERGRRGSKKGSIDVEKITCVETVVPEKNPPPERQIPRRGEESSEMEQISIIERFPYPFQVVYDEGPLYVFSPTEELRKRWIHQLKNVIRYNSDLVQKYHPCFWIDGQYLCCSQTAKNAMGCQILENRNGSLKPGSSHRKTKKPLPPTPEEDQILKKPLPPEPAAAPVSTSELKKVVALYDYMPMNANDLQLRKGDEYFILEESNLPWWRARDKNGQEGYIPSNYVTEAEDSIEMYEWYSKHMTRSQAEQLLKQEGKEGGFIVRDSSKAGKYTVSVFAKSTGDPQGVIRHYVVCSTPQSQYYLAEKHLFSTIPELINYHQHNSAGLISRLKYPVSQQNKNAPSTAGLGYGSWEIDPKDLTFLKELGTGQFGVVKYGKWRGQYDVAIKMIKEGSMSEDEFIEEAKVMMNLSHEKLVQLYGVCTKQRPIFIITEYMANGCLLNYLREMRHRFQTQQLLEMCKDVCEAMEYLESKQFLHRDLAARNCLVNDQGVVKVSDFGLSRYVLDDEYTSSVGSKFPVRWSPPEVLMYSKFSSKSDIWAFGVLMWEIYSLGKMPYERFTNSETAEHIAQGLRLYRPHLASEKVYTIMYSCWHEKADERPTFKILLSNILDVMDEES

Broadly, the IC50 is the concentration at which inhibition is half-maximal. For `CC(C)(C)c1ccc(C(=O)Nc2cccc(-c3ncnc4[nH]c(C5=CCOCC5)cc34)c2CO)cc1` [Example 48, 4-tert-Butyl-N-{3-[6-(3,6-dihydro-2H-pyran-4-yl)-7H-pyrrolo[2,3-d]pyrimidin-4-yl]-2-hydroxymethyl-phenyl}-benzamide], the IC50 was 0.007 µM.

For the molecule `CC(=O)c1ccc(C(=O)Nc2cc(F)cc(-c3ncnc4[nH]c(C5=CCN(C(=O)N(C)C)CC5)cc34)c2C)cc1` [Example 19, 4-{4-[3-(4-Acetyl-benzoylamino)-5-fluoro-2-methyl-phenyl]-7H-pyrrolo[2,3-d]pyrimidin-6-yl}-3,6-dihydro-2H-pyridine-1-carboxylic acid dimethylamide], the half-maximal inhibitory concentration (IC50) amounted to 0.023 µM. `Cc1c(NC(=O)c2ccc(C3CC3)cc2)cc(F)cc1-c1ncnc2[nH]c(C3=CCN(C(=O)N(C)C)CC3)cc12` [Example 29, 4-{4-[3-(4-Cyclopropyl-benzoylamino)-5-fluoro-2-methyl-phenyl]-7H-pyrrolo[2′3-d]pyrimidin-6-yl}-3,6-dihydro-2H-pyridine-1-carboxylic acid dimethylamide]: the half-inhibitory concentration (IC50) is 0.013 µM. `Cc1c(NC(=O)c2ccc(C(C)(C)C)cc2)cc(F)cc1-c1ncnc2[nH]c(C3=CCOCC3)cc12` [Example 49, 4-tert-Butyl-N-{3-[6-(3,6-dihydro-2H-pyran-4-yl)-7H-pyrrolo[2,3-d]pyrimidin-4-yl]-5-fluoro-2-methyl-phenyl}-benzamide]: the IC50 was found to be 0.099 µM.

Regarding `Cc1c(NC(=O)N2Cc3ccc(F)cc3C2)cc(F)cc1-c1ncnc2[nH]c(C3=CCN(C(=O)N(C)C)CC3)cc12` [Example 59, 5-Fluoro-1,3-dihydro-isoindole-2-carboxylic acid {3-[6-(1-dimethylcarbamoyl-1,2,3,6-tetrahydro-pyridin-4-yl)-7H-pyrrolo[2,3-d]pyrimidin-4-yl]-5-fluoro-2-methyl-phenyl}-amide], the IC50 turned out to be 0.003 µM. Under `COC(C)(C)c1ccc(C(=O)Nc2cc(F)cc(-c3ncnc4[nH]c(C5=CCN(C(=O)N(C)C)CC5)cc34)c2C)cc1` [Example 13, 4-(4-{5-Fluoro-3-[4-(1-methoxy-1-methyl-ethyl)-benzoylamino]-2-methyl-phenyl}-7H-pyrrolo[2,3-d]pyrimidin-6-yl)-3,6-dihydro-2H-pyridine-1-carboxylic acid dimethylamide] stands 0.004 µM. Under `Cc1c(NC(=O)c2ccc(C(C)(C)C)cc2)cc(F)cc1-c1ncnc2[nH]c(C3=CC[S+]([O-])CC3)cc12` (stereo not drawn) [Example 25, 4-tert-Butyl-N-{5-fluoro-2-methyl-3-[6-(3,6-dihydro-1-oxido-2H-thiopyran-4-yl)-7H-pyrrolo[2,3-d]pyrimidin-4-yl]-phenyl}-benzamide] stands 0.002 µM. For the molecule `Cc1c(NC(=O)c2ccc(C(C)(C)C)cc2)cc(F)cc1-c1ncnc2[nH]c(C3=CCN(S(C)(=O)=O)CC3)cc12` [Example 42, 4-tert-Butyl-N-{5-fluoro-3-[6-(1-methanesulfonyl-1,2,3,6-tetrahydro-pyridin-4-yl)-7H-pyrrolo[2,3-d]pyrimidin-4-yl]-2-methyl-phenyl}-benzamide], the concentration for half-maximal inhibition (IC50) amounted to 0.03 µM. `Cc1c(NC(=O)c2ccc(C3(F)CC3)cc2)cc(F)cc1-c1ncnc2[nH]c(C3=CCN(C(=O)N(C)C)CC3)cc12` [Example 1, 4-(4-{5-Fluoro-3-[4-(1-fluoro-cyclopropyl)-benzoylamino]-2-methyl-phenyl}-7H-pyrrolo[2′3-d]pyrimidin-6-yl)-3,6-dihydro-2H-pyridine-1-carboxylic acid dimethylamide]: the IC50 is 0.001 µM. With `Cc1c(NC(=O)c2ccc(C(C)(C)C)cc2)cccc1-c1ncnc2[nH]c(C3=CCC(O)CC3)cc12` (stereo not drawn) [Example 66, 4-tert-Butyl-N-{3-[6 (4 hydroxy-cyclohex-1-enyl)-7H-pyrrolo[2,3-d]pyrimidin-4-yl]-2-methyl-phenyl}-benzamide], the IC50 came out at 0.012 µM.

As to `Cc1c(NC(=O)c2ccc(C(C)(C)C)cc2)cccc1-c1ncnc2[nH]c(C3=CCOCC3)cc12` [Example 64, 4-tert-Butyl-N-{3-[6-(3,6-dihydro-2H-pyran-4-yl)-7H-pyrrolo[2,3-d]pyrimidin-4-yl]-2-methyl-phenyl}-benzamide], the IC50 amounted to 0.015 µM. To `Cc1c(NC(=O)c2ccc(C(C)(C)O)cc2F)cc(F)cc1-c1ncnc2[nH]c(C3=CCOCC3)cc12` [Example 22, N-{3-[6-(3,6-Dihydro-2H-pyran-4-yl)-7H-pyrrolo[2,3-d]pyrimidin-4-yl]-5-fluoro-2-methyl-phenyl}-2-fluoro-4-(1-hydroxy-1-methyl-ethyl)-benzamide] belongs 0.008 µM; to `CN(C)C1CC=C(c2cc3c(-c4cccc(NC(=O)c5ccc(C(C)(C)C)cc5)c4CO)ncnc3[nH]2)CC1` (stereo not drawn) [Example 56, 4-tert-Butyl-N-{3-[6 (4 dimethylamino-cyclohex-1-enyl)-7H-pyrrolo[2,3-d]pyrimidin-4-yl]-2-hydroxymethyl-phenyl}-benzamide], 0.002 µM; to `Cc1c(NC(=O)c2ccc(C(C)(C)C)cc2)cccc1-c1ncnc2[nH]c(C3=CCN(S(C)(=O)=O)CC3)cc12` [Example 44, 4-tert-Butyl-N-{3-[6-(1 methanesulfonyl-1,2,3,6-tetrahydro-pyridin-4-yl)-7H-pyrrolo[2,3-d]pyrimidin-4-yl]-2-methyl-phenyl}-benzamide], 0.017 µM. Under `Cc1c(NC(=O)c2ccc(C(C)(C)C)cc2)cccc1-c1ncnc2[nH]c(C3=CCS(=O)(=O)CC3)cc12` [Example 53, 4-tert-Butyl-N-{3-[6-(3,6-dihydro-1,1-dioxido-2H-thiopyran-4-yl)-7H-pyrrolo[2,3-d]pyrimidin-4-yl]-2-methyl-phenyl}-benzamide] stands 0.064 µM; under `Cc1c(NC(=O)c2ccc(C(C)(C)C)cc2)cc(F)cc1-c1ncnc2[nH]c(C3=CCN(S(=O)(=O)N(C)C)CC3)cc12` [Example 43, 4-tert-Butyl-N-{3-[6 (1 dimethylsulfamoyl-1,2,3,6-tetrahydro-pyridin-4-yl)-7H-pyrrolo[2,3-d]pyrimidin-4-yl]-5-fluoro-2-methyl-phenyl}-benzamide], 0.14 µM. Under `Cc1c(NC(=O)c2ccc(OC(C)C)cc2)cc(F)cc1-c1ncnc2[nH]c(C3=CCN(C(=O)N(C)C)CC3)cc12` [Example 10, 4-{4-[5-Fluoro-3-(4-isopropoxy-benzoylamino)-2-methyl-phenyl]-7H-pyrrolo[2,3-d]pyrimidin-6-yl}-3,6-dihydro-2H-pyridine-1-carboxylic acid dimethylamide] stands 0.015 µM; under `Cc1c(NC(=O)c2ccc(C(C)(C)C)cc2)cccc1-c1ncnc2[nH]c(C3=CC[S+]([O-])CC3)cc12` (stereo not drawn) [Example 52, 4-tert-Butyl-N-{2-methyl-3-[6-(3,6-dihydro-1-oxido-2H-thiopyran-4-yl)-7H-pyrrolo[2,3-d]pyrimidin-4-yl]-phenyl}-benzamide], 0.024 µM; under `CN(C)C(=O)N1CC=C(c2cc3c(-c4cccc(N5CCc6cc(C(C)(C)C)ccc6C5=O)c4CO)ncnc3[nH]2)CC1` [Example 45, 4-{4-[3-(6-tert-Butyl-1-oxo-3,4-dihydro-1H-isoquinolin-2-yl)-2-hydroxymethyl-phenyl]-7H-pyrrolo[2,3-d]pyrimidin-6-yl}-3,6-dihydro-2H-pyridine-1-carboxylic acid dimethylamide], 0.008 µM. In the case of `Cc1c(NC(=O)N2CC(OC(C)(C)C)C2)cc(F)cc1-c1ncnc2[nH]c(C3=CCOCC3)cc12` [Example 61, 3-tert-Butoxy-azetidine-1-carboxylic acid {3-[6-(3,6-dihydro-2H-pyran-4-yl)-7H-pyrrolo[2,3-d]pyrimidin-4-yl]-5-fluoro-2-methyl-phenyl}-amide], the concentration for half-maximal inhibition (IC50) was 0.006 µM.

As to `Cc1c(NC(=O)c2ccc(N(C)C)cc2)cc(F)cc1-c1ncnc2[nH]c(C3=CCN(C(=O)N(C)C)CC3)cc12` [Example 15, 4-{4-[3-(4-Dimethylamino-benzoylamino)-5-fluoro-2-methyl-phenyl]-7H-pyrrolo[2,3-d]pyrimidin-6-yl}-3,6-dihydro-2H-pyridine-1-carboxylic acid dimethylamide], the IC50 came out at 0.017 µM. Under `CN(C)C(=O)N1CC=C(c2cc3c(-c4cccc(N5CCc6cc(C7CC7)ccc6C5=O)c4CO)ncnc3[nH]2)CC1` [Example 46, 4-{4-[3-(6-Cyclopropyl-1-oxo-3,4-dihydro-1H-isoquinolin-2-yl)-2-hydroxymethyl-phenyl]-7H-pyrrolo[2,3-d]pyrimidin-6-yl}-3,6-dihydro-2H-pyridine-1-carboxylic acid dimethylamide] stands 0.017 µM; under `Cc1c(NC(=O)c2ccc(C(C)(C)C)cc2)cc(F)cc1-c1ncnc2[nH]c(C3=CCS(=O)(=O)CC3)cc12` [Example 26, 4-tert-Butyl-N-{3-[6-(3,6-dihydro-1,1-dioxido-2H-thiopyran-4-yl)-7H-pyrrolo[2,3-d]pyrimidin-4-yl]-5-fluoro-2-methyl-phenyl}-benzamide], 0.035 µM; under `Cc1c(NC(=O)c2ccc(S(F)(F)(F)(F)F)cc2)cc(F)cc1-c1ncnc2[nH]c(C3=CCN(C(=O)N(C)C)CC3)cc12` [Example 11, 4-(4-{5-Fluoro-3-[4-pentafluorothio-benzoylamino]-2-methyl-phenyl}-7H-pyrrolo[2,3-d]pyrimidin-6-yl)-3,6-dihydro-2H-pyridine-1-carboxylic acid dimethylamide], 0.005 µM.
